The source of these data is ChEMBL document CHEMBL5154907, “Discovery and Anti-Inflammatory Activity Evaluation of a Novel CDK8 Inhibitor through Upregulation of IL-10 for the Treatment of Inflammatory Bowel Disease In Vivo” (J Med Chem, 2022).

One assay has as its system BMDC. The experiment in a line: Anti-inflammatory activity against R848-stimulated mouse BMDC cells assessed as upregulation of IL-10 production at 5 uM treated for 24 hrs followed by R848 stimulation for 12 hrs by ELISA method (reference value: 100 %). Format: functional. The settings on record: time 36 hrs. Background: In an ELISA, binding on a coated surface is turned into a signal by an enzyme label.

Assay [1] addresses CDK8/Cyclin C (Homo sapiens) (UniProt P49336+P24863). The experiment in a line: Inhibition of recombinant full length His tagged human CDK8/Cyclin C expressed in Baculovirus at 200 nM incubated for 60 mins in presence of ATP by ADP-Glo kinase assay. For orientation: ADP-Glo first removes unused ATP, then detects ADP through luciferase.
The target in another assay is CDK8/Cyclin C (Homo sapiens, UniProt P49336). The experiment in a line: Inhibition of recombinant full length His tagged human CDK8/Cyclin C expressed in Baculovirus incubated for 60 mins in presence of ATP by ADP-Glo kinase assay.
CDK8/Cyclin C, sequence (P49336 whole entry): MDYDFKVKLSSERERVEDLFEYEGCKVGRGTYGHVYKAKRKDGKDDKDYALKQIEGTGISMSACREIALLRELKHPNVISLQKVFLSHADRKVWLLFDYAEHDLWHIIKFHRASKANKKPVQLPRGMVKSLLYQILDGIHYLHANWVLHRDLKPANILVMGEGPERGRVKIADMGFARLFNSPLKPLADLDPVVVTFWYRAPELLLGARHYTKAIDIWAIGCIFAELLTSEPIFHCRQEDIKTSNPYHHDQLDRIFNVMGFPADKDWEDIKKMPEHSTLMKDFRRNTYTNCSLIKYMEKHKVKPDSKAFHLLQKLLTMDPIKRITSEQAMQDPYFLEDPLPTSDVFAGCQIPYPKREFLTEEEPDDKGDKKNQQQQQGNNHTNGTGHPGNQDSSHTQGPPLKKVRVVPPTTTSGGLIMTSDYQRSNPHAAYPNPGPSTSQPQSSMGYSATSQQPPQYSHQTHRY
CDK8/Cyclin C, sequence (P24863 whole entry, further chain): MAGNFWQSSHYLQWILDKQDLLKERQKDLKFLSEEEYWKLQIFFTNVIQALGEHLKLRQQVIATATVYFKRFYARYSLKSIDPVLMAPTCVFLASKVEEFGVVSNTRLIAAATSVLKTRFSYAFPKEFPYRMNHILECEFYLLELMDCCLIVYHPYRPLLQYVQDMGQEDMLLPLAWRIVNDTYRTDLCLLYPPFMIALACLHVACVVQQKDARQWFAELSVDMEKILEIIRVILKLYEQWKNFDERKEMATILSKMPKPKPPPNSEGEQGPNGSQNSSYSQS

By inhibition is commonly meant the share of the control response that was lost under treatment. Regarding `Cc1ccc(NC(=O)c2cncc(-c3ccc(C(=O)N4CCNCC4)cc3)c2)cc1`, the Activity in the assay on BMDC is given as 62%. Also, in assay [1], the inhibition was 77%.
In the same order, the values of `CC(C)c1cccc(NC(=O)c2cc(O)cc(-c3ccc(C(=O)N4CCNCC4)cc3)c2)c1` are 62% and 29%.
Taken in the same sequence, the figures for `O=C(NC1CCCCC1)c1cncc(-c2ccc(C(=O)N3CCNCC3)cc2)c1` were 59% and 53%.
Turning to `CC(=O)Nc1cccc(NC(=O)c2cc(O)cc(-c3ccc(C(=O)N4CCNCC4)cc3)c2)c1`, the Activity in the assay on BMDC is reported as 12%.
Regarding `O=C(Nc1cccc(F)c1)c1cncc(-c2ccc(C(=O)N3CCNCC3)cc2)c1`, in the assay on BMDC, the Activity is listed as 53%. For the same molecule, the inhibition in assay [1] worked out at 42%.
In the same order, the values of `Nc1cccc(NC(=O)c2cc(O)cc(-c3ccc(C(=O)N4CCNCC4)cc3)c2)c1` are 53% and 39%.
In the same order, the values of `O=C(Nc1ccc(C(F)(F)F)cc1)c1cc(O)cc(-c2ccc(C(=O)N3CCNCC3)cc2)c1` are 8% and 40%.
As to `CC(C)c1ccccc1NC(=O)c1cncc(-c2ccc(C(=O)N3CCNCC3)cc2)c1`, in the assay with BMDC, the Activity came out at 78%. For the same molecule, the inhibition in assay [1] was determined as 58%.
In the same order, the values of `O=C(Nc1cccc(F)c1)c1cc(O)cc(-c2ccc(C(=O)N3CCNCC3)cc2)c1` are 26% and 20%.
Taken in the same sequence, the figures for `O=C(Nc1ccccc1F)c1cncc(-c2ccc(C(=O)N3CCNCC3)cc2)c1` were 62% and 55%.
In the same order, the values of `Cc1ccc(NC(=O)c2cc(O)cc(-c3ccc(C(=O)N4CCNCC4)cc3)c2)cc1` are 34% and 21%.
For `O=C(NCc1ccccc1)c1cncc(-c2ccc(C(=O)N3CCNCC3)cc2)c1`, in the assay on BMDC, the Activity is listed as 72%. For the same molecule, the inhibition in assay [1] is 62%.
For the molecule `O=C(NCc1ccoc1)c1cncc(-c2ccc(C(=O)N3CCNCC3)cc2)c1`, the Activity in the assay with BMDC was 60%. Further, the inhibition in assay [1] is 61%.
Turning to `COc1cccc(NC(=O)c2cc(O)cc(-c3ccc(C(=O)N4CCNCC4)cc3)c2)c1`, the Activity in the assay on BMDC came out at 17%. Further, the inhibition in assay [1] stood at 36%.
Taken in the same sequence, the figures for `CCc1ccc(NC(=O)c2cc(O)cc(-c3ccc(C(=O)N4CCNCC4)cc3)c2)cc1` were 72% and 48%.
On to `Cn1cc(-c2cc(O)c3c(=O)cc(-c4ccccc4)oc3c2)cn1`, for which the Activity in the assay on BMDC was 57%. In assay [1], the inhibition was 11%.
Taken in the same sequence, the figures for `O=C(Nc1cccc(OC(F)(F)F)c1)c1cncc(-c2ccc(C(=O)N3CCNCC3)cc2)c1` were 48% and 44%.
Turning to `CCN1CCN(C(=O)c2ccc(-c3cc(O)c4c(=O)cc(-c5ccccc5)oc4c3)cc2)CC1`, the Activity in the assay with BMDC is 23%. In addition, in assay [1], the inhibition is 57%.
In the case of `CN1CCN(C(=O)c2ccc(-c3cc(O)c4c(=O)cc(-c5ccccc5)oc4c3)cc2)CC1`, the Activity with BMDC worked out at 19%.
For the molecule `O=C(Nc1cccc(OC(F)(F)F)c1)c1cc(O)cc(-c2ccc(C(=O)N3CCNCC3)cc2)c1`, in the assay on BMDC, the Activity was 10%.
As a reminder, the IC50 is the concentration needed to halve the response being measured. As for `COc1cc(OC)c(-c2cc(O)c3c(=O)cc(-c4ccccc4)oc3c2)c(OC)c1`, on CDK8/Cyclin C, the 50% inhibitory concentration (IC50) was 205 nM. For the same molecule, the inhibition in assay [1] was determined as 56%.
With `CC(=O)Nc1ccc(NC(=O)c2cc(O)cc(-c3ccc(C(=O)N4CCNCC4)cc3)c2)cc1`, the Activity in the assay with BMDC is recorded as 30%. Besides, in assay [1], the inhibition was found to be 45%.
In the case of `CC(C)(C)c1ccc(NC(=O)c2cc(O)cc(-c3ccc(C(=O)N4CCNCC4)cc3)c2)cc1`, the Activity in the assay on BMDC is 72%. Also, the inhibition in assay [1] turned out to be 35%.
Turning to `Cc1noc(C)c1-c1cc(O)c2c(=O)cc(-c3ccccc3)oc2c1`, in the assay with BMDC, the Activity was determined as 30%. The inhibition in assay [1] was found to be 12%.
Taken in the same sequence, the figures for `CC(=O)Nc1ccccc1NC(=O)c1cncc(-c2ccc(C(=O)N3CCNCC3)cc2)c1` were 29% and 47%.
Turning to `CC(C)c1cccc(NC(=O)c2cncc(-c3ccc(C(=O)N4CCNCC4)cc3)c2)c1`, in assay [1], the inhibition was 64%.
Take `O=C(Nc1ccc(OC(F)(F)F)cc1)c1cncc(-c2ccc(C(=O)N3CCNCC3)cc2)c1`: the Activity with BMDC is reported as 62%. Also, the inhibition in assay [1] was 55%.
Taken in the same sequence, the figures for `Nc1cccc(NC(=O)c2cncc(-c3ccc(C(=O)N4CCNCC4)cc3)c2)c1` were 60% and 59%.
For `O=c1cc(-c2ccccc2)oc2cc(-c3ccc(N4CCOCC4)cc3)cc(O)c12`, in the assay with BMDC, the Activity is reported as 23%. Also, the inhibition in assay [1] worked out at 19%.
Take `O=C(Nc1ccc(C(F)(F)F)cc1)c1cncc(-c2ccc(C(=O)N3CCNCC3)cc2)c1`: in the assay with BMDC, the Activity amounted to 19%. Also, the inhibition in assay [1] was determined as 23%.
With `Cc1cc(C)c(NC(=O)c2cc(O)cc(-c3ccc(C(=O)N4CCNCC4)cc3)c2)c(C)c1`, the Activity with BMDC is 59%. Also, in assay [1], the inhibition was found to be 38%.
For `COc1cc(-c2cc(O)c3c(=O)cc(-c4ccccc4)oc3c2)cc(OC)c1OC`, the Activity in the assay with BMDC came out at 78%. For the same molecule, in assay [1], the inhibition was 27%.
Take `O=c1cc(-c2ccccc2)oc2cc(-c3cncnc3)cc(O)c12`: the IC50 at CDK8/Cyclin C is 548 nM. Moreover, the inhibition in assay [1] is 35%.
For the molecule `O=C(Nc1ccc(F)cc1)c1cc(O)cc(-c2ccc(C(=O)N3CCNCC3)cc2)c1`, the Activity in the assay with BMDC was 42%. Also, in assay [1], the inhibition worked out at 12%.
Turning to `CN(C)C(=O)c1ccc(-c2cc(O)c3c(=O)cc(-c4ccccc4)oc3c2)cc1`, the Activity in the assay on BMDC was determined as 76%. Also, the inhibition in assay [1] was determined as 43%.
Taken in the same sequence, the figures for `CC(C)c1ccccc1NC(=O)c1cc(O)cc(-c2ccc(C(=O)N3CCNCC3)cc2)c1` were 23% and 53%.
Taken in the same sequence, the figures for `COc1ccc(NC(=O)c2cc(O)cc(-c3ccc(C(=O)N4CCNCC4)cc3)c2)cc1` were 56% and 61%.
Regarding `CCc1ccc(-c2cc(O)c3c(=O)cc(-c4ccccc4)oc3c2)cc1`, the inhibition in assay [1] came out at 31%.
Turning to `CCN1CCN(c2ccc(-c3cc(O)c4c(=O)cc(-c5ccccc5)oc4c3)cc2)CC1`, the Activity with BMDC was determined as 40%. For the same molecule, the inhibition in assay [1] was found to be 29%.
For the molecule `Nc1ccc(NC(=O)c2cc(O)cc(-c3ccc(C(=O)N4CCNCC4)cc3)c2)cc1`, in the assay with BMDC, the Activity is listed as 20%. Besides, in assay [1], the inhibition came out at 31%.
Consider `CC(C)c1ccc(NC(=O)c2cc(O)cc(-c3ccc(C(=O)N4CCNCC4)cc3)c2)cc1`, for which the Activity in the assay with BMDC came to 53%. Moreover, the inhibition in assay [1] turned out to be 28%.
In the same order, the values of `O=c1cc(-c2ccccc2)oc2cc(-c3ccc(CN4CCOCC4)cc3)cc(O)c12` are 53% and 43%.
`COc1ccc(-c2cc(O)c3c(=O)cc(-c4ccccc4)oc3c2)cc1`: in the assay with BMDC, the Activity was 76%. The inhibition in assay [1] was 47%.
Taken in the same sequence, the figures for `CCCN1CCN(C(=O)c2ccc(-c3cc(O)c4c(=O)cc(-c5ccccc5)oc4c3)cc2)CC1` were 53% and 29%.
For the molecule `CN(C)Cc1ccc(-c2cc(O)c3c(=O)cc(-c4ccccc4)oc3c2)cc1`, in the assay on BMDC, the Activity is reported as 82%. The inhibition in assay [1] is 47%.
Consider `CC(C)(C)c1ccc(NC(=O)c2cncc(-c3ccc(C(=O)N4CCNCC4)cc3)c2)cc1`, for which the Activity in the assay with BMDC was found to be 63%. For the same molecule, the inhibition in assay [1] was found to be 54%.
As to `O=c1cc(-c2ccccc2)oc2cc(-c3ccsc3)cc(O)c12`, in assay [1], the inhibition stood at 6%.
For `O=C(Nc1ccc(OC(F)(F)F)cc1)c1cc(O)cc(-c2ccc(C(=O)N3CCNCC3)cc2)c1`, the Activity in the assay with BMDC came out at 88%. The inhibition in assay [1] is 5%.
In the same order, the values of `O=c1cc(-c2ccccc2)oc2cc(-c3ccc(OC(F)(F)F)cc3)cc(O)c12` are 44% and 48%.
In the same order, the values of `O=C(Nc1ccc(F)cc1)c1cncc(-c2ccc(C(=O)N3CCNCC3)cc2)c1` are 75% and 60%.
In the same order, the values of `O=C(NCCc1ccccc1)c1cncc(-c2ccc(C(=O)N3CCNCC3)cc2)c1` are 62% and 52%.
On to `CC(C)c1ccc(NC(=O)c2cncc(-c3ccc(C(=O)N4CCNCC4)cc3)c2)cc1`, for which the Activity with BMDC was 61%. Besides, in assay [1], the inhibition stood at 62%.
In the same order, the values of `O=c1cc(-c2ccccc2)oc2cc(-c3ccoc3)cc(O)c12` are 48% and 29%.
Taken in the same sequence, the figures for `O=C(c1ccc(-c2cc(O)c3c(=O)cc(-c4ccccc4)oc3c2)cc1)N1CCSCC1` were 46% and 19%.
Taken in the same sequence, the figures for `O=C(c1ccc(-c2cc(O)c3c(=O)cc(-c4ccccc4)oc3c2)cc1)N1CCOCC1` were 25% and 6%.
For `O=C(Nc1cccc(Cl)c1)c1cncc(-c2ccc(C(=O)N3CCNCC3)cc2)c1`, the Activity in the assay with BMDC came to 39%. Moreover, the inhibition in assay [1] stood at 47%.
In the same order, the values of `O=C(Nc1ccccc1F)c1cc(O)cc(-c2ccc(C(=O)N3CCNCC3)cc2)c1` are 42% and 19%.
Taken in the same sequence, the figures for `Cc1cccc(NC(=O)c2cc(O)cc(-c3ccc(C(=O)N4CCNCC4)cc3)c2)c1` were 76% and 20%.
In the case of `O=C(Nc1cccc(C(F)(F)F)c1)c1cc(O)cc(-c2ccc(C(=O)N3CCNCC3)cc2)c1`, the Activity in the assay on BMDC was determined as 19%. For the same molecule, the inhibition in assay [1] came out at 15%.
Turning to `O=c1cc(-c2ccccc2)oc2cc(-c3ccc(Cl)cc3)cc(O)c12`, the inhibition in assay [1] amounted to 31%.
Regarding `COc1ccccc1NC(=O)c1cncc(-c2ccc(C(=O)N3CCNCC3)cc2)c1`, the Activity in the assay with BMDC was found to be 62%. The inhibition in assay [1] came out at 60%.
Consider `CC(=O)Nc1ccc(-c2cc(O)c3c(=O)cc(-c4ccccc4)oc3c2)cc1`, for which the Activity with BMDC came out at 49%. The inhibition in assay [1] was 54%.
